Test systems include RXF 393 renal; MOLT-4 leukemia; NCI/ADR-RES ovarian; M14 melanoma; OVCAR-8 ovarian; HOP-62 NSCLC; SK-MEL-5 melanoma; EKVX NSCLC.
Assay in all cases: NCI anticancer screen, dose series, 48 h

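Growth conditions: 96-well plates. Treatment: test compound, 48 hours, 5 concentrations. Analysis: linear interpolation between bracketing concentrations; unreached endpoints set to highest concentration. Here, GI50 denotes the concentration required for 50% inhibition of growth. TGI is the concentration that stops growth completely.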 Bounds are passed on as bounds.

For `CCN1CCN(CC(=O)N2c3cccc4cccc(c34)N(C(=O)CN3CCN(CC)CC3)C2c2cn(-c3ccccc3)nc2-c2cccc([N+](=O)[O-])c2)CC1`, the GI50 in the test with RXF 393 renal was 1.62 µM; in the test with MOLT-4 leukemia, 1.69 µM; in the test on NCI/ADR-RES ovarian it was 1.98 µM; in the test with M14 melanoma it was 1.69 µM; with OVCAR-8 ovarian it was 2.06 µM; with HOP-62 NSCLC it was 1.63 µM. In addition, the values for the GI50 in the test on SK-MEL-5 melanoma and with EKVX NSCLC were 1.75 µM and 1.79 µM, respectively. Also, the TGI in the test with RXF 393 renal was determined as 3.09 µM; in the test with MOLT-4 leukemia it was 5.06 µM; in the test with NCI/ADR-RES ovarian it was 4.16 µM; with M14 melanoma it was 3.46 µM; in the test on OVCAR-8 ovarian, 5.01 µM; with HOP-62 NSCLC, 3.28 µM. For the same molecule, the results for the TGI in the test with SK-MEL-5 melanoma and in the test on EKVX NSCLC were 3.21 µM and 3.79 µM, respectively.
For the molecule `N#C/C(=C\c1ccc(Br)cc1)n1nnc2ccc(F)cc21`, the GI50 is 0.465 µM in the test with RXF 393 renal; 2.18 µM with MOLT-4 leukemia; 0.34 µM in the test on NCI/ADR-RES ovarian; 0.385 µM with M14 melanoma; 1.84 µM with OVCAR-8 ovarian; 2.33 µM in the test with HOP-62 NSCLC. In addition, the GI50 in the test on SK-MEL-5 melanoma is 1.57 µM. Besides, the TGI is 1.86 µM in the test with RXF 393 renal; over 100 µM in the test with MOLT-4 leukemia; 3.42 µM with NCI/ADR-RES ovarian; 1.69 µM in the test with M14 melanoma; 18.2 µM with OVCAR-8 ovarian; 7.52 µM with HOP-62 NSCLC. Moreover, in the test with SK-MEL-5 melanoma, the TGI came out at 2.94 µM.
In the case of `CC1(C)C2C=CC1C(=O)CC2` (stereo not given), the TGI in the test on RXF 393 renal, in the test on MOLT-4 leukemia, in the test on M14 melanoma, in the test with OVCAR-8 ovarian, with HOP-62 NSCLC and in the test on SK-MEL-5 melanoma was over 100 µM in each case. The molecule further displayed a TGI with EKVX NSCLC of over 100 µM.
Consider `CN(C)c1ccc(/C=C/c2cc[n+](C)c(/C=C/c3ccc(N(C)C)cc3)c2)cc1`, for which the GI50 in the test on RXF 393 renal was 0.389 µM; in the test on MOLT-4 leukemia it was 0.388 µM; with NCI/ADR-RES ovarian, 3.81 µM; with M14 melanoma, 0.376 µM; in the test with OVCAR-8 ovarian, 0.294 µM; in the test on HOP-62 NSCLC, 0.345 µM. In the test on SK-MEL-5 melanoma, the GI50 was 0.204 µM. Besides, the TGI in the test with RXF 393 renal was 1.91 µM; in the test with MOLT-4 leukemia, 3.53 µM; in the test with NCI/ADR-RES ovarian, 18.7 µM; with M14 melanoma, 1.65 µM; in the test on OVCAR-8 ovarian, 1.26 µM; in the test on HOP-62 NSCLC it was 2.31 µM. This molecule also registered a TGI with SK-MEL-5 melanoma of 0.465 µM.
For the molecule `CC12CCC(Br)C(C)(C)C1CC=C1C(=O)OCC1O2` (stereo not given), the TGI in the test on RXF 393 renal was 26.3 µM; with MOLT-4 leukemia, over 100 µM; in the test with NCI/ADR-RES ovarian, 56.9 µM; with M14 melanoma, over 51.9 µM; in the test with OVCAR-8 ovarian, 34.9 µM; with SK-MEL-5 melanoma it was over 100 µM. In the test on EKVX NSCLC, this molecule came in with a TGI of 47 µM.
On to `O=c1cccccc1[O-].O=c1cccccc1[O-].O=c1cccccc1[O-].[La+3]`, for which the TGI is 31.9 µM in the test on RXF 393 renal; over 100 µM with MOLT-4 leukemia; 53.8 µM in the test with M14 melanoma; 51.5 µM in the test on OVCAR-8 ovarian; 78.5 µM in the test on HOP-62 NSCLC; 22.4 µM with SK-MEL-5 melanoma. The molecule further showed a TGI with EKVX NSCLC of over 100 µM. Also, in the test on HOP-62 NSCLC, the GI50 was 31.4 µM.
For the molecule `O=C1C[C@@H]2/C(=C(O)\C=C\c3ccccc3)C(=O)C=C[C@@H]2O1`, the GI50 in the test with RXF 393 renal is 1.47 µM; in the test with MOLT-4 leukemia, 1.85 µM; with NCI/ADR-RES ovarian, 0.69 µM; in the test on M14 melanoma, 0.435 µM; in the test with OVCAR-8 ovarian it was 3.06 µM; with SK-MEL-5 melanoma, 2.01 µM. Further, the GI50 with EKVX NSCLC was 13 µM. In addition, the TGI is 2.83 µM in the test on RXF 393 renal; 5.77 µM with MOLT-4 leukemia; 3.4 µM in the test on NCI/ADR-RES ovarian; 2.63 µM with M14 melanoma; 12.3 µM in the test with OVCAR-8 ovarian; 4.82 µM with SK-MEL-5 melanoma. For the same molecule, the TGI in the test with EKVX NSCLC worked out at 26 µM.
Consider `COc1cccc(/C=N/C(/N=C/c2cccc(OC)c2O)c2cccc(OC)c2O)c1O`, for which the TGI in the test on RXF 393 renal was 29.2 µM; with NCI/ADR-RES ovarian, 85.2 µM; with M14 melanoma, 48.2 µM; with OVCAR-8 ovarian, 47.9 µM; in the test with HOP-62 NSCLC it was over 100 µM; in the test on SK-MEL-5 melanoma, 35.1 µM. The same molecule registered a TGI in the test on EKVX NSCLC of 52 µM.
Regarding `CC(=O)OCc1cc2ccccc2nc1C(Br)(Br)Br`, the TGI in the test on RXF 393 renal worked out at 33.4 µM; in the test on MOLT-4 leukemia, 28.1 µM; with NCI/ADR-RES ovarian it was 44 µM; in the test on M14 melanoma, 55 µM; with HOP-62 NSCLC it was 56.3 µM; with SK-MEL-5 melanoma it was 23.9 µM. This molecule also registered a TGI in the test with EKVX NSCLC of 41.8 µM.
Regarding `COc1cc(C2CC(c3ccc(Nc4ccnc5cc(Cl)ccc45)cc3)=NN2c2ccc(Cl)cc2)cc(OC)c1OC` (stereo not given), the GI50 with RXF 393 renal was 1.34 µM; in the test on MOLT-4 leukemia, 3.86 µM; in the test on NCI/ADR-RES ovarian, 1.7 µM; in the test on M14 melanoma it was 2.01 µM; in the test on OVCAR-8 ovarian it was 4.19 µM; in the test on HOP-62 NSCLC, 2.14 µM. Moreover, the GI50 in the test on SK-MEL-5 melanoma was 2.68 µM. For the same molecule, the TGI with RXF 393 renal is 8.05 µM; in the test on MOLT-4 leukemia, over 100 µM; with NCI/ADR-RES ovarian, over 100 µM; in the test with M14 melanoma it was 9.61 µM; in the test on OVCAR-8 ovarian, over 100 µM; with HOP-62 NSCLC, 47.5 µM. The molecule further registered a TGI with SK-MEL-5 melanoma of 15.6 µM.
As to `O=c1c(O)c(-c2cc(O)c(O)c(O)c2)oc2cc(O)cc(O)c12`, the TGI in the test on RXF 393 renal was 43.4 µM; in the test with MOLT-4 leukemia, over 100 µM; in the test with NCI/ADR-RES ovarian, 53.2 µM; with M14 melanoma it was over 100 µM; in the test on OVCAR-8 ovarian, 33.2 µM; in the test with HOP-62 NSCLC it was 41.4 µM. The molecule also gave a TGI in the test on SK-MEL-5 melanoma of over 100 µM.
On to `CN(C)CCNC(=O)c1ccc(NC(=O)c2nc([N+](=O)[O-])cn2C)cc1`, for which the TGI with RXF 393 renal, in the test with MOLT-4 leukemia, in the test on NCI/ADR-RES ovarian, in the test on M14 melanoma, in the test with OVCAR-8 ovarian and in the test on HOP-62 NSCLC was over 100 µM each time. This molecule came in with a TGI in the test with SK-MEL-5 melanoma of over 100 µM.
On to `CC(=O)C1=C(O)CC2CC3c4[nH]c5ccccc5c4CCN3CC2C1` (stereo not given), for which the TGI with RXF 393 renal was 82.3 µM; in the test with MOLT-4 leukemia, 70.6 µM; with M14 melanoma it was over 100 µM; with OVCAR-8 ovarian, over 100 µM; in the test on HOP-62 NSCLC it was over 100 µM; in the test with SK-MEL-5 melanoma it was over 100 µM. The same molecule displayed a TGI in the test on EKVX NSCLC of over 100 µM.
On to `COC(=O)/C=C/c1cc2c(cc1-c1c(C(=O)O)cc(OC)c(OC)c1OC)OCO2`, for which the TGI in the test on MOLT-4 leukemia, in the test on NCI/ADR-RES ovarian, in the test on M14 melanoma, with OVCAR-8 ovarian, with HOP-62 NSCLC and in the test on SK-MEL-5 melanoma was over 10 µM each time.

These data come from PubChem BioAssay (NCI).
